{"source": "patent EP0499162A2", "about": "“GM-CSF inhibiting oligopeptides” (Bristol-Myers Squibb Company, priority 1991, dated 1992)", "system": "GM-CSF", "assay": "GM-CSF activity on bone marrow precursors (liquid culture, methylene blue dye absorbance of adherent granulocytes and macrophages)", "assay_type": "cell-based, murine", "conditions": "at any of the test concentrations (Figure 2)", "procedure": "To determine the effect of the desired inhibitory oligopeptide, the following assay, using murine bone marrow precursors, was developed. Of course, if using an oligopeptide derivable from a species other than murine, substitution of cells from that species into the assay procedure would be required.\nThe biological activity of GM-CSF was determined in a liquid culture system of murine bone marrow cells (see, e.g., I. Bursuker, et al., J. Reticuloendothelial Soc., 25, 533 (1979)). Bone marrow cells were collected from femurs and tibia of 10 to 12 week old CB6F1 (C57BLxBalb/c) male mice (Harlan-Sprague Dawley, Inc., Indianapolis, Indiana) by flushing dissected and clean bones with phosphate buffered saline (\"PBS\", GIBCO, Grand Island, New York). Viable cell count was determined using trypan blue. The cells then were plated (1 ml/well; 2 X 10^5 cells/ml) in 24-well tissue culture plates (Costar, Cambridge, MA). Granulocyte-macrophage colony stimulating factor (\"GM-CSF\"; 2 ng/ml; recombinantly produced and available from PeproTech, Inc., Rocky Hill, NJ) and the desired oligopeptide were added at the desired concentration to the wells. […] The dye absorbance was measured at 620 nm in a MCC/340 Titertech Multiscan plate reader (Eflab, Helsinki, Finland). The dye absorbance reading is proportional to the number of cells in the culture.", "note": "Where no end group is shown, it is not given here.", "data": [{"sequence": "YYQTYCPPTPETD [Oligopeptide P96-109, oligopeptide spanning a region of the murine GM-CSF molecule, 13 amino acids]", "values": [{"measurement": "effect on the biological activity of GM-CSF", "result": "did not affect"}]}]}
